Test [1] concerns the target T1, Beta-secretase 1 (Homo sapiens, UniProt P56817). Description: Inhibition of BACE expressed in HEK293 cells. In kind it is cell-based.
Test [2] deals with T1, Beta-secretase 1. Description: Inhibition of BACE.

Drawing on ChEMBL document CHEMBL1146261, “Design of potent inhibitors of human beta-secretase. Part 2” (Bioorg Med Chem Lett, 2007), this text covers EC50 and IC50 for 28 compounds.

T1 sequence (P56817 whole entry): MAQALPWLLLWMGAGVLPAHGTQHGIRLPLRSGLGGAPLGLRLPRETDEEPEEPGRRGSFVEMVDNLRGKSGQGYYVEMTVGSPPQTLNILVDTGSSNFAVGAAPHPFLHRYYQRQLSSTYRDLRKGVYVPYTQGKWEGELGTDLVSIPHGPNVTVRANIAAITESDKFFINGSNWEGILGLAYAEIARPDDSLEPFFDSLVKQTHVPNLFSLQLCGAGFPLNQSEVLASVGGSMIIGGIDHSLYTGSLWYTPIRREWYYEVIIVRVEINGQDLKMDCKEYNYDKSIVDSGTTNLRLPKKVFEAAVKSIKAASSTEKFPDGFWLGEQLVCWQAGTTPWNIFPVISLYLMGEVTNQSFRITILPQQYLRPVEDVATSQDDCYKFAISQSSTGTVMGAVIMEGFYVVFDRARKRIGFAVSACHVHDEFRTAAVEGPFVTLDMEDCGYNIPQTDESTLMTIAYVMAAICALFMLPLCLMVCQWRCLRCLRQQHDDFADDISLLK

By EC50 is commonly meant the concentration at which the effect is half-maximal. Low values mean higher potency in that assay, high ones lower potency in that assay. As usually defined, the IC50 is the concentration needed to halve the response being measured. Read a low IC50 as greater potency in that assay. `CCCCS(=O)(=O)C[C@@H](NC(=O)C1CC1)C(=O)N[C@@H](Cc1cc(F)cc(F)c1)[C@H](O)CNCc1cccc(CC)c1` displayed an EC50 in test [1] of 4 nM. The half-inhibitory concentration (IC50) in test [2] was 10 nM.

On to `CCCC(CCC)S(=O)(=O)C[C@@H](NC(=O)c1ccc(OC)cc1)C(=O)N[C@@H](Cc1cc(F)cc(F)c1)[C@H](O)CNCc1cccc(CC)c1`, for which a half-maximal effect in test [1] (EC50) was put at 11 nM. In test [2], this compound had an IC50 of 2 nM.

For `CCCC(CCC)S(=O)(=O)C[C@@H](NC(=O)c1cccnc1)C(=O)N[C@@H](Cc1cc(F)cc(F)c1)[C@H](O)CNCc1cccc(CC)c1`, in test [1], the EC50 was 1 nM. In addition, in test [2], half-maximal inhibition (IC50) was put at 1 nM.

Take `CCCC(CCC)S(=O)(=O)C[C@@H](NC(=O)OCc1ccccc1)C(=O)N[C@@H](Cc1cc(F)cc(F)c1)[C@H](O)CNCc1cccc(CC)c1`: the midpoint of inhibition in test [2], the IC50, lay at 3 nM.

As to `CCCCS(=O)(=O)CC(NC(=O)OCCC#N)C(=O)N[C@@H](Cc1cc(F)cc(F)c1)[C@H](O)CNCc1cccc(CC)c1` (some centres undefined), in test [1], a half-maximal effect (EC50) was put at 5 nM. In addition, the IC50 in test [2] was 8 nM.

Regarding `CCCCS(=O)(=O)C[C@@H](NC(=O)OCC(F)(F)F)C(=O)N[C@@H](Cc1cc(F)cc(F)c1)[C@H](O)CNCc1cccc(CC)c1`, in test [2], the IC50 turned out to be 4 nM. This counts as single-digit nanomolar.

As to `CCCCS(=O)(=O)C[C@@H](NC(C)=O)C(=O)N[C@@H](Cc1cc(F)cc(F)c1)[C@H](O)CNCc1cccc(CC)c1`, a half-maximal effect in test [1] (EC50) was put at 6 nM. Moreover, in test [2], the IC50 stood at 13 nM.

Consider `CCCC(CCC)S(=O)(=O)C[C@@H](NC(=O)c1ccc(C(F)(F)F)cc1)C(=O)N[C@@H](Cc1cc(F)cc(F)c1)[C@H](O)CNCc1cccc(CC)c1`, for which it took 76 nM to reach a half-maximal effect in test [1] (EC50). The IC50 in test [2] turned out to be 53 nM.

Regarding `CCCC(CCC)S(=O)(=O)C[C@@H](NC(=O)c1ccccc1)C(=O)N[C@@H](Cc1cc(F)cc(F)c1)[C@H](O)CNCc1cccc(CC)c1`, the EC50 in test [1] amounted to 14 nM. Also, in test [2], the 50% inhibitory concentration (IC50) was 495 nM.

The compound `CCCCS(=O)(=O)C[C@@H](NC(=O)c1cnccc1O)C(=O)N[C@@H](Cc1cc(F)cc(F)c1)[C@H](O)CNCc1cccc(CC)c1` gave an EC50 in test [1] of 24 nM. In test [2], this compound returned an IC50 of 5 nM.

Regarding `CCCC(CCC)S(=O)(=O)C[C@@H](NC(=O)c1cccc(Cl)c1)C(=O)N[C@@H](Cc1cc(F)cc(F)c1)[C@H](O)CNCc1cccc(CC)c1`, the EC50 in test [1] is 48 nM. This compound also registered an IC50 in test [2] of 5 nM.

Regarding `CCCC(CCC)S(=O)(=O)C[C@@H](NC(=O)c1cccc(O)c1)C(=O)N[C@@H](Cc1cc(F)cc(F)c1)[C@H](O)CNCc1cccc(CC)c1`, the EC50 in test [1] came out at 9 nM. In addition, it took 2 nM to reach half-maximal inhibition in test [2] (IC50).

As to `CCCCS(=O)(=O)C[C@@H](NC(=O)c1cccnc1)C(=O)N[C@@H](Cc1cc(F)cc(F)c1)[C@H](O)CNCc1cccc(CC)c1`, the response in test [1] was half-maximal at 1 nM (EC50). Further, the IC50 in test [2] stood at 2 nM.

In the case of `CCCCS(=O)(=O)C[C@@H](NC(=O)c1ncc[nH]1)C(=O)N[C@@H](Cc1cc(F)cc(F)c1)[C@H](O)CNCc1cccc(CC)c1`, in test [1], the EC50 came to 4 nM. Also, in test [2], the midpoint of inhibition, the IC50, lay at 4 nM.

In turn, `CCCCS(=O)(=O)C[C@@H](NC(=O)OCCNC(C)=O)C(=O)N[C@@H](Cc1cc(F)cc(F)c1)[C@H](O)CNCc1cccc(CC)c1` displayed an EC50 in test [1] of 12 nM. Further, half-maximal inhibition in test [2] (IC50) required 27 nM.

`CCCC(CCC)S(=O)(=O)C[C@@H](NC(=O)c1ccccc1C)C(=O)N[C@@H](Cc1cc(F)cc(F)c1)[C@H](O)CNCc1cccc(CC)c1`: the EC50 in test [1] was 59 nM. This compound gave a half-maximal inhibitory concentration (IC50) in test [2] of 15 nM.

In test [1], `CCCCS(=O)(=O)C[C@@H](NC(=O)OC)C(=O)N[C@@H](Cc1cc(F)cc(F)c1)[C@H](O)CNCc1cccc(CC)c1` registered an EC50 of 2 nM. In test [2], this compound registered an IC50 of 4 nM.

As to `CCCC(CCC)S(=O)(=O)C[C@@H](NC(=O)OCc1ccncc1)C(=O)N[C@@H](Cc1cc(F)cc(F)c1)[C@H](O)CNCc1cccc(CC)c1`, in test [1], a half-maximal response (EC50) required 5 nM. Moreover, half-maximal inhibition in test [2] (IC50) was put at 3 nM.

On to `CCCCS(=O)(=O)C[C@@H](NC(=O)c1ccncc1)C(=O)N[C@@H](Cc1cc(F)cc(F)c1)[C@H](O)CNCc1cccc(CC)c1`, for which, in test [1], the EC50 was found to be 1 nM. In test [2], the IC50 came out at 5 nM.

In test [1], `CCCCS(=O)(=O)C[C@@H](NC(=O)COC)C(=O)N[C@@H](Cc1cc(F)cc(F)c1)[C@H](O)CNCc1cccc(CC)c1` registered a concentration for a half-maximal effect (EC50) of 4 nM. This compound also came in with an IC50 in test [2] of 22 nM.

In turn, `CCCCS(=O)(=O)C[C@@H](NC(=O)c1cnccn1)C(=O)N[C@@H](Cc1cc(F)cc(F)c1)[C@H](O)CNCc1cccc(CC)c1` showed an EC50 in test [1] of 0.2 nM. The same compound gave an IC50 in test [2] of 4 nM.

In test [1], `CCCCS(=O)(=O)C[C@@H](NC(=O)c1cc(C)n[nH]1)C(=O)N[C@@H](Cc1cc(F)cc(F)c1)[C@H](O)CNCc1cccc(CC)c1` yielded an EC50 of 4 nM. The same compound registered an IC50 in test [2] of 4 nM.

`CCCCS(=O)(=O)C[C@@H](NC(=O)SC1CCOC1)C(=O)N[C@@H](Cc1cc(F)cc(F)c1)[C@H](O)CNCc1cccc(CC)c1` (some centres undefined) showed an EC50 in test [1] of 4 nM. In addition, the IC50 in test [2] was 15 nM.

As for `CCCCS(=O)(=O)C[C@@H](NC(=O)OCc1cccnc1)C(=O)N[C@@H](Cc1cc(F)cc(F)c1)[C@H](O)CNCc1cccc(CC)c1`, a half-maximal effect in test [1] (EC50) was put at 0.6 nM. Moreover, it took 10 nM to reach half-maximal inhibition in test [2] (IC50).

For `CCCCS(=O)(=O)C[C@@H](NC(=O)OCc1ccncc1)C(=O)N[C@@H](Cc1cc(F)cc(F)c1)[C@H](O)CNCc1cccc(CC)c1`, the EC50 in test [1] stood at 2 nM. This compound had an IC50 in test [2] of 11 nM.

`CCCC(CCC)S(=O)(=O)C[C@@H](NC(=O)c1ccc(C)cc1)C(=O)N[C@@H](Cc1cc(F)cc(F)c1)[C@H](O)CNCc1cccc(CC)c1`: a half-maximal response in test [1] (EC50) required 19 nM. In addition, the IC50 in test [2] turned out to be 4 nM.

In turn, `CCCC(CCC)S(=O)(=O)C[C@@H](NC(=O)OC)C(=O)N[C@@H](Cc1cc(F)cc(F)c1)[C@H](O)CNCc1cccc(CC)c1` had an EC50 in test [1] of 2 nM. This compound also registered an IC50 in test [2] of 3 nM.

For the compound `CCCC(CCC)S(=O)(=O)C[C@@H](NC(=O)OCc1cccnc1)C(=O)N[C@@H](Cc1cc(F)cc(F)c1)[C@H](O)CNCc1cccc(CC)c1`, the EC50 in test [1] was 5 nM. The IC50 in test [2] amounted to 4 nM.
